For one assay, the target named is BRD4-BD2 (Homo sapiens (Human), UniProt O60885). The experiment in a line: BRD4 AlphaScreen assay, BRD4-BD2. Format: binding. The note with it: biotin-labeled tetra-acetylated histone H4 peptide, 75 min, room temperature, read-out: BRD4 BD-2 enzyme IC50. The method in brief: (§1)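 AlphaScreen displacement of 50 nM biotin-tetra-acetylated H4 peptide from 3.8 nM BRD4-BD1 (1.25% DMSO) or 20 nM BRD4-BD2 (0.83% DMSO) in HEPES pH 7.4 buffer, 75 min RT. Streptavidin donor/GSH acceptor beads added, 75 min dark; IC50 from log-concentration curve fit.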

The next assay has as its target BRD4-BD1 (Homo sapiens (Human), UniProt O60885). As to the kind of experiment: BRD4 AlphaScreen assay, BRD4-BD1. It is filed as binding. As to conditions: biotin-labeled tetra-acetylated histone H4 peptide, 75 min, room temperature, read-out: BRD4 BD-1 enzyme IC50. The method in brief: as §1
For orientation: Alpha assays give light when donor and acceptor beads are brought close together.

A value given as a limit tells only on which side of the number the result lay.

By IC50 is commonly meant the concentration that gives 50% inhibition. For `Cc1nnc2ccc3c(cc(-c4c[nH]cn4)n3Cc3ccccc3)n12` [Example 74, 6-benzyl-7-(1H-imidazol-4-yl)-1-methyl-6H-pyrrolo[2,3-e][1,2,4]triazolo[4,3-a]pyridine], the IC50 on BRD4-BD2 and at BRD4-BD1 was ≤ 0.1 µM throughout.
Regarding `Cc1nnc2ccc3c(cc(-c4cn(CCN5CCOCC5)cn4)n3Cc3ccccc3)n12` [Example 75, 6-benzyl-1-methyl-7-[1-(2-morpholin-4-ylethyl)-1H-imidazol-4-yl]-6H-pyrrolo[2,3-e][1,2,4]triazolo[4,3-a]pyridine], the IC50 at BRD4-BD2 and at BRD4-BD1 was ≤ 0.1 µM each time.
With `Cc1nnc2ccc3c(cc(-c4ccn(C)n4)n3Cc3ccccc3)n12` [Example 76, 6-benzyl-1-methyl-7-(1-methyl-1H-pyrazol-3-yl)-6H-pyrrolo[2,3-e][1,2,4]triazolo[4,3-a]pyridine], the IC50 on BRD4-BD2 and at BRD4-BD1 was ≤ 0.1 µM in each case.
Take `Cc1nnc2ccc3c(cc(-c4ccn(CCN5CCOCC5)n4)n3Cc3ccccc3)n12` [Example 77, 6-benzyl-1-methyl-7-[1-(2-morpholin-4-ylethyl)-1H-pyrazol-3-yl]-6H-pyrrolo[2,3-e][1,2,4]triazolo[4,3-a]pyridine]: the IC50 on BRD4-BD2 and on BRD4-BD1 was ≤ 0.1 µM throughout.
In the case of `Cc1nnc2ccc3c(cc(-c4ccn(CCC#N)n4)n3Cc3ccccc3)n12` [Example 78, 3-[3-(6-benzyl-1-methyl-6H-pyrrolo[2,3-e][1,2,4]triazolo[4,3-a]pyridin-7-yl)-1H-pyrazol-1-yl]propanenitrile], the IC50 on BRD4-BD2 and on BRD4-BD1 was ≤ 0.1 µM throughout.
Take `CCn1ccc(-c2cc3c(ccc4nnc(C)n43)n2Cc2ccccc2)n1` [Example 79, 6-benzyl-7-(1-ethyl-1H-pyrazol-3-yl)-1-methyl-6H-pyrrolo[2,3-e][1,2,4]triazolo[4,3-a]pyridine]: the IC50 on BRD4-BD2 and at BRD4-BD1 was ≤ 0.1 µM in each case.
Regarding `CCn1cnc(-c2cc3c(ccc4nnc(C)n43)n2Cc2ccccc2)c1` [Example 80, 6-benzyl-7-(1-ethyl-1H-imidazol-4-yl)-1-methyl-6H-pyrrolo[2,3-e][1,2,4]triazolo[4,3-a]pyridine], the concentration for half-maximal inhibition (IC50) on BRD4-BD2 and on BRD4-BD1 was ≤ 0.1 µM throughout.
With `Cc1nnc2ccc3c(cc(-c4cn(CCC#N)cn4)n3Cc3ccccc3)n12` [Example 81, 3-[4-(6-benzyl-1-methyl-6H-pyrrolo[2,3-e][1,2,4]triazolo[4,3-a]pyridin-7-yl)-1H-imidazol-1-yl]propanenitrile], the IC50 on BRD4-BD2 and at BRD4-BD1 was ≤ 0.1 µM each time.
`CNC(=O)c1cc2c(ccc3nnc(C)n32)n1Cc1ccccc1` [Example 82, 6-benzyl-N,1-dimethyl-6H-pyrrolo[2,3-e][1,2,4]triazolo[4,3-a]pyridine-7-carboxamide]: the IC50 at BRD4-BD2 and on BRD4-BD1 was ≤ 0.1 µM throughout.
In the case of `CCCNC(=O)c1cc2c(ccc3nnc(C)n32)n1Cc1ccccc1` [Example 83, 6-benzyl-1-methyl-N-propyl-6H-pyrrolo[2,3-e][1,2,4]triazolo[4,3-a]pyridine-7-carboxamide], the IC50 on BRD4-BD2 and on BRD4-BD1 was ≤ 0.1 µM throughout.
`Cc1nnc2ccc3c(cc(C(=O)NC(C)C)n3Cc3ccccc3)n12` [Example 84, 6-benzyl-N-isopropyl-1-methyl-6H-pyrrolo[2,3-e][1,2,4]triazolo[4,3-a]pyridine-7-carboxamide]: the IC50 on BRD4-BD2 and on BRD4-BD1 was 0.1 to 1 µM each time.
`Cc1nnc2ccc3c(cc(C(=O)NC4CCC4)n3Cc3ccccc3)n12` [Example 85, 6-benzyl-N-cyclobutyl-1-methyl-6H-pyrrolo[2,3-e][1,2,4]triazolo[4,3-a]pyridine-7-carboxamide]: the IC50 on BRD4-BD2 and on BRD4-BD1 was ≤ 0.1 µM throughout.
For `Cc1nnc2ccc3c(cc(C(=O)N[C@H](C)C(F)(F)F)n3Cc3ccccc3)n12` [Example 86, 6-benzyl-1-methyl-N-[(1R)-2,2,2-trifluoro-1-methylethyl]-6H-pyrrolo[2,3-e][1,2,4]triazolo[4,3-a]pyridine-7-carboxamide], the IC50 at BRD4-BD2 and on BRD4-BD1 was 0.1 to 1 µM in each case.
On to `Cc1nnc2ccc3c(cc(-c4ccn(CCN(C)C)n4)n3Cc3ccccc3)n12` [Example 89, 2-[3-(6-benzyl-1-methyl-6H-pyrrolo[2,3-e][1,2,4]triazolo[4,3-a]pyridin-7-yl)-1H-pyrazol-1-yl]-N,N-dimethylethanamine], for which the IC50 on BRD4-BD2 was ≤ 0.1 µM; at BRD4-BD1, 0.1 to 1 µM.
Take `Cc1nnc2ccc3c(cc(-c4ccn(C5(CC#N)CNC5)n4)n3Cc3ccccc3)n12` [Example 90, {3-[3-(6-benzyl-1-methyl-6H-pyrrolo[2,3-e][1,2,4]triazolo[4,3-a]pyridin-7-yl)-1H-pyrazol-1-yl]azetidin-3-yl}acetonitrile]: the IC50 at BRD4-BD2 and at BRD4-BD1 was ≤ 0.1 µM in each case.
With `CC(=O)N1CC(CC#N)(n2ccc(-c3cc4c(ccc5nnc(C)n54)n3Cc3ccccc3)n2)C1` [Example 91, {1-acetyl-3-[3-(6-benzyl-1-methyl-6H-pyrrolo[2,3-e][1,2,4]triazolo[4,3-a]pyridin-7-yl)-1H-pyrazol-1-yl]azetidin-3-yl}acetonitrile], the IC50 on BRD4-BD2 and on BRD4-BD1 was ≤ 0.1 µM in each case.
For `Cc1nnc2ccc3c(cc(-c4ccn(C5(CC#N)CN(S(C)(=O)=O)C5)n4)n3Cc3ccccc3)n12` [Example 92, [3-[3-(6-benzyl-1-methyl-6H-pyrrolo[2,3-e][1,2,4]triazolo[4,3-a]pyridin-7-yl)-1H-pyrazol-1-yl]-1-(methylsulfonyl)azetidin-3-yl]acetonitrile], the IC50 at BRD4-BD2 and at BRD4-BD1 was ≤ 0.1 µM each time.
`Cc1nnc2ccc3c(cc(-c4ccn(C5(CC#N)CN(C)C5)n4)n3Cc3ccccc3)n12` [Example 93, {3-[3-(6-benzyl-1-methyl-6H-pyrrolo[2,3-e][1,2,4]triazolo[4,3-a]pyridin-7-yl)-1H-pyrazol-1-yl]-1-methylazetidin-3-yl}acetonitrile]: the IC50 on BRD4-BD2 and at BRD4-BD1 was ≤ 0.1 µM each time.
Turning to `Cc1nnc2ccc3c(cc(C(=O)N(C)C)n3Cc3ccccc3)n12` [Example 94, 6-benzyl-N,N,1-trimethyl-6H-pyrrolo[2,3-e][1,2,4]triazolo[4,3-a]pyridine-7-carboxamide], the IC50 on BRD4-BD2 and at BRD4-BD1 was 0.1 to 1 µM in each case.
Take `Cc1nnc2ccc3c(cc(-c4ccn(CCC(=O)N(C)C)n4)n3Cc3ccccc3)n12` [Example 95, 3-[3-(6-benzyl-1-methyl-6H-pyrrolo[2,3-e][1,2,4]triazolo[4,3-a]pyridin-7-yl)-1H-pyrazol-1-yl]-N,N-dimethylpropanamide]: the IC50 at BRD4-BD2 and at BRD4-BD1 was ≤ 0.1 µM each time.
On to `CCNC(=O)CCn1ccc(-c2cc3c(ccc4nnc(C)n43)n2Cc2ccccc2)n1` [Example 96, 3-[3-(6-benzyl-1-methyl-6H-pyrrolo[2,3-e][1,2,4]triazolo[4,3-a]pyridin-7-yl)-1H-pyrazol-1-yl]-N-ethylpropanamide], for which the IC50 on BRD4-BD2 and at BRD4-BD1 was ≤ 0.1 µM each time.
On to `Cc1nnc2ccc3c(cc(-c4ccn(CCC(N)=O)n4)n3Cc3ccccc3)n12` [Example 98, 3-[3-(6-benzyl-1-methyl-6H-pyrrolo[2,3-e][1,2,4]triazolo[4,3-a]pyridin-7-yl)-1H-pyrazol-1-yl]propanamide], for which the IC50 at BRD4-BD2 and at BRD4-BD1 was ≤ 0.1 µM each time.
`CNC(=O)c1cc2c(ccc3nnc(C)n32)n1Cc1cccc(Cl)c1` [Example 99, 6-(3-chlorobenzyl)-N,1-dimethyl-6H-pyrrolo[2,3-e][1,2,4]triazolo[4,3-a]pyridine-7-carboxamide]: the IC50 on BRD4-BD2 and on BRD4-BD1 was ≤ 0.1 µM each time.
`Cc1nnc2ccc3c(cc(C(=O)N[C@H]4C[C@H](C#N)C4)n3Cc3ccccc3)n12` [Example 100, 6-benzyl-N-(trans-3-cyanocyclobutyl)-1-methyl-6H-pyrrolo[2,3-e][1,2,4]triazolo[4,3-a]pyridine-7-carboxamide]: the 50% inhibitory concentration (IC50) on BRD4-BD2 and on BRD4-BD1 was ≤ 0.1 µM in each case.
`Cc1nnc2ccc3c(cc(C(=O)N[C@H]4C[C@@H](C#N)C4)n3Cc3ccccc3)n12` [Example 101, 6-benzyl-N-(cis-3-cyanocyclobutyl)-1-methyl-6H-pyrrolo[2,3-e][1,2,4]triazolo[4,3-a]pyridine-7-carboxamide]: the IC50 at BRD4-BD2 and on BRD4-BD1 was 0.1 to 1 µM throughout.
Regarding `CNC(=O)c1cc2c(ccc3nnc(C)n32)n1Cc1cccc(F)c1` [Example 102, 6-(3-fluorobenzyl)-N,1-dimethyl-6H-pyrrolo[2,3-e][1,2,4]triazolo[4,3-a]pyridine-7-carboxamide], the IC50 at BRD4-BD2 and at BRD4-BD1 was ≤ 0.1 µM each time.
For the molecule `Cc1nnc2ccc3c(cc(-c4ccn(CCC(=O)N(C)C)n4)n3Cc3cccc(Cl)c3)n12` [Example 103, 3-{3-[6-(3-chlorobenzyl)-1-methyl-6H-pyrrolo[2,3-e][1,2,4]triazolo[4,3-a]pyridin-7-yl]-1H-pyrazol-1-yl}-N,N-dimethylpropanamide], the IC50 at BRD4-BD2 and at BRD4-BD1 was ≤ 0.1 µM in each case.
On to `Cc1nnc2ccc3c(cc(-c4ccn(CCC(=O)N5CCC5)n4)n3Cc3cccc(Cl)c3)n12` [Example 104, 7-[1-(3-azetidin-1-yl-3-oxopropyl)-1H-pyrazol-3-yl]-6-(3-chlorobenzyl)-1-methyl-6H-pyrrolo[2,3-e][1,2,4]triazolo[4,3-a]pyridine], for which the IC50 on BRD4-BD2 and at BRD4-BD1 was ≤ 0.1 µM each time.
Turning to `Cc1nnc2ccc3c(cc(-c4ccn(CCC(=O)N5CCN(C)CC5)n4)n3Cc3cccc(Cl)c3)n12` [Example 105, 6-(3-chlorobenzyl)-1-methyl-7-{1-[3-(4-methylpiperazin-1-yl)-3-oxopropyl]-1H-pyrazol-3-yl}-6H-pyrrolo[2,3-e][1,2,4]triazolo[4,3-a]pyridine], the IC50 at BRD4-BD2 and on BRD4-BD1 was ≤ 0.1 µM in each case.

The values above are taken from patent publication US9777003B2, “Tricyclic heterocycles as bet protein inhibitors” (Incyte Corporation, priority 2013, dated 2017).
